Structures can show the parent of a compound that is named as a salt. Where two headings read alike, the source gives them in different places.
System: HBV rcDNA in HepDE19 cells
Experiment: HepDE19 assay with bDNA quantitation of HBV rcDNA
Format: cell-based, hepatitis B virus (HBV)
Conditions: Hepatitis B virus, HepDE19, 168 h
Method in brief: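 HepG2-derived HepDE19 cells, switched to Tet-free medium, were exposed 7 days at 37 °C to compound (8-point ½-log series from 25 μM, 0.5% DMSO). HBV rcDNA measured by bDNA assay with HBV-specific probes; EC50/EC90 by 4-parameter fit. CC50 from CellTiter-Glo ATP on replicate plates after 4 days.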

[1] = read-out: DE-19 bDNA EC50, HepDE19 cells, 7 day incubation, rcDNA by Quantigene 2.0 bDNA assay
[2] = HepDE19 cells, 7 day incubation, rcDNA by Quantigene 2.0 bDNA assay, read-out: DE-19 bDNA EC50

Structure (SMILES) | EC50 [1] | EC50 [2]
O=C(N[C@@H]1CCSc2c(C(=O)Nc3ccc(F)c(F)c3)ccc(F)c21)OCc1ccccn1 [Compound 170, Pyridin-2-ylmethyl (R)-(8-((3,4-difluorophenyl)carbamoyl)-5-fluorothiochroman-4-yl)carbamate hydrochloride] | 21 µM | –
COC(=O)N[C@H]1CCSc2c(C(=O)Nc3ccc(F)c(F)c3)ccc(F)c21 [Compound 171, Methyl (S)-(8-((3,4-difluorophenyl)carbamoyl)-5-fluorothiochroman-4-yl)carbamate] | – | 4.1 µM
O=C(N[C@H]1CCSc2c(C(=O)Nc3ccc(F)c(Cl)c3)ccc(F)c21)OCc1ccccn1 [Compound 172] | – | 2.9 µM
O=C(N[C@@H]1CCSc2c(C(=O)Nc3ccc(F)c(Cl)c3)ccc(F)c21)OCc1ccccn1 [Compound 173] | – | 8.7 µM
COC(=O)N[C@H]1CCSc2c(C(=O)Nc3ccc(F)c(Cl)c3)ccc(F)c21 [Compound 174, Methyl (S)-(8-((3-chloro-4-fluorophenyl)carbamoyl)-5-fluorothiochroman-4-yl)carbamate] | – | 1.6 µM
O=C(NC1CCNc2c(C(=O)Nc3ccc(F)c(F)c3)cccc21)OCc1ccccn1 (stereo not shown) [Compound 175, pyridin-2-ylmethyl (8-((3,4-difluorophenyl)carbamoyl)-1,2,3,4-tetrahydroquinolin-4-yl)carbamate] | – | 12 µM
COC(=O)NC1CCNc2c(C(=O)Nc3ccc(F)c(Cl)c3)cccc21 (stereo not shown) [Compound 176, methyl (8-((3-chloro-4-fluorophenyl)carbamoyl)-1,2,3,4-tetrahydroquinolin-4-yl)carbamate] | – | 23 µM
COC(=O)N[C@H]1CCCc2c(C(=O)Nc3ccc(F)c(F)c3)cccc21 [Compound 184, Methyl (S)-(5-((3,4-difluorophenyl)carbamoyl)-1,2,3,4-tetrahydronaphthalen-1-yl)carbamate] | – | 8.7 µM
CNC(=O)N[C@H]1CCCc2c(C(=O)Nc3ccc(F)c(F)c3)cccc21 [Compound 185, (S)—N-(3,4-Difluorophenyl)-5-(3-methylureido)-5,6,7,8-tetrahydronaphthalene-1-carboxamide] | 9.8 µM | –
O=C(N[C@H]1CCCc2c(C(=O)Nc3ccc(F)c(F)c3)cccc21)OCc1ccccn1 [Compound 186, Pyridin-2-ylmethyl (S)-(5-((3,4-difluorophenyl)carbamoyl)-1,2,3,4-tetrahydronaphthalen-1-yl)carbamate] | 5.6 µM | –
